Reference: patent US8076323B2, “Anti-inflammatory agents” (Cambridge Enterprise Limited, priority 2005, dated 2011)
Bridges are numbered along the chain shown (N, C = ends). Where no end group is shown, it is not given here. [ ]: non-standard residue; d: D form.

How the values were obtained:
[1] = cited from earlier work
[2] = stability in human serum; type: in vitro ADME; conditions: 37° C.
[3] = test system: chemokine-induced migration; assay: chemokine-induced leukocyte migration in vitro (prior work); type: cell-based; conditions: compared with (S)-3-(undec-10-enoyl)-aminoglutarimide
[4] = test system: chemokine-induced migration; conditions: cited from earlier work
[5] = oral route or injection; comparable to dexamethasone; cited from earlier work

Question: For “c(DCys-DGin-DIle-DTrp-DLys-DGln-DLys-DPro-DAsp-DLeu-DCys)-NH2 ([dC][dQ][dI][dW][dK][dQ][dK][dP][dD][dL][dC]-NH2; disulfide 1-11 (inferred)) [NR58-3.14.3]”, which “half-life period of clearance from blood plasma” value ([1]; after intravenous injection) is on record?
Answer: less than 30 minutes

Question: And the oral bioavailability ([1]; in vivo, po)?
Answer: not orally bioavailable

Question: What does the source list for `C=CCCCCCCCCC(=O)[C@@H]1CCCNC1=O` [(S)-3-(undec-10-enoyl)-tetrahydropyridin-2-one]?
Answer: time completely stable in human serum [2]: at least 7 days; potency compared with the parental molecule [3]: considerably reduced potency

Question: Which “inhibition of leukocyte migration or recruitment in vitro (in words)” value [4] does the source give for `O=C1NCCCC[C@@H]1NC(=O)C12CC3CC(CC(C3)C1)C2` [(S)-3-(1′-adamantanecarbonylamino)caprolactam] here?
Answer: potent inhibitor

Question: And the “anti-inflammatory activity in vivo (in words)” value [5]?
Answer: powerful anti-inflammatory activity
